Activity calls are given as the source filed them. The calls are words filed in the database; no cut-off is given here.
Experiments:
Complement C5 [1] = target: T1, Complement C5 (Homo sapiens, UniProt P01031); assay: Binding affinity to C5a (unknown origin) assessed as dissociation constant by fluorescence quenching analysis
Complement C5 [2] = target: T1, Complement C5; assay: Binding affinity to C5a (unknown origin) at 10 uM by FT-IR analysis; details: filed as modulator
Complement C5 [3] = target: T1, Complement C5; assay: Binding affinity to C5a (unknown origin) at 2 mM by 1H NMR analysis; details: filed as modulator
HEK293 = assay: Cytotoxicity against human HEK293 cells assessed as cellular viability at 0.19 to 100 uM incubated for 18 hrs by MTT assay; format: toxicity, cell-based; details: hek293, 18 h, dose 0.19-100 µM
[4] = target: T2, C5a anaphylatoxin chemotactic receptor 1 (Homo sapiens, UniProt P21730); assay: Binding affinity to N-terminal peptide SR5 of C5aR1 (1 to 28 residues)(unknown origin) assessed as dissociation constant by fluorescence based analysis
T2 sequence (P21730 whole entry): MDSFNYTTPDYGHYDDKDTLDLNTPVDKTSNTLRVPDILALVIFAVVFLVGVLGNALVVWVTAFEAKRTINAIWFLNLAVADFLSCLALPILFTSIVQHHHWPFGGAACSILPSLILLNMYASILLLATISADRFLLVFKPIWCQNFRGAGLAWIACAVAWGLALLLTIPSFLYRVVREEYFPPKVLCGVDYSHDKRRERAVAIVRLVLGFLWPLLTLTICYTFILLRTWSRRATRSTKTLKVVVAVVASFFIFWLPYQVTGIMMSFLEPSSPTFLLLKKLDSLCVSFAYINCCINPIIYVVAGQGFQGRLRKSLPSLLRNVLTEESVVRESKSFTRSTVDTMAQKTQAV

HeLa = assay: Cytotoxicity against human HeLa cells assessed as cellular viability at 0.19 to 100 uM incubated for 18 hrs by MTT assay; format: toxicity, cell-based; details: dose 0.19-100 µM
[5] = target: T3, C5a anaphylatoxin chemotactic receptor 2 (Homo sapiens, UniProt Q9P296); assay: Binding affinity to N-terminal peptide SR12 of C5aR2 (6 to 32 residues)(unknown origin) assessed as dissociation constant by fluorescence based analysis
T3 sequence (Q9P296 whole entry, the tested form may be a part): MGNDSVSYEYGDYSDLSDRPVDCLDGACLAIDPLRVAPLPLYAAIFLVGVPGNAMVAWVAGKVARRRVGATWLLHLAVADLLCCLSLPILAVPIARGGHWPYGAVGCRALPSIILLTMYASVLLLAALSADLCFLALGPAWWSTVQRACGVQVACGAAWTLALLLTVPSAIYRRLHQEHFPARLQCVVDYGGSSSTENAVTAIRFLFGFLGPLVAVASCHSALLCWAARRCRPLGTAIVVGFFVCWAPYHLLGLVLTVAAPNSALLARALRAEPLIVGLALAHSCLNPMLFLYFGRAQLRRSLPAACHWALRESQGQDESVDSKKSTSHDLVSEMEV

Erythrocyte = assay: Hemolytic activity against human erythrocytes at 0.19 to 100 uM incubated for 1 hr by absorbance based assay; format: toxicity, cell-based; details: dose 0.19-100 µM
Complement C5 [6] = target: T1, Complement C5; assay: Binding affinity to C5a (unknown origin) assessed as tryptophan lifetime by TCSPC analysis (reference value: 2.70 +/- 0.03 nanoseconds); details: filed as modulator
[7] = target: T3, C5a anaphylatoxin chemotactic receptor 2; assay: Binding affinity to N-terminal peptide SR13 of C5aR2 (14 to 32 residues)(unknown origin) assessed as dissociation constant by fluorescence based analysis
[8] = target: T2, C5a anaphylatoxin chemotactic receptor 1; assay: Binding affinity to N-terminal peptide SR3 of C5aR1 (1 to 28 residues)(unknown origin) assessed as dissociation constant by fluorescence based analysis
Complement C5 [9] = target: T1, Complement C5; assay: Binding affinity to C5a (unknown origin) assessed as dissociation constant incubated for 1 hr by CD analysis
Complement C5 [10] = target: T1, Complement C5; assay: Binding affinity to C5a (unknown origin) assessed as change in near-UV CD signature at 50 uM; details: filed as modulator
trypsin = trypsin (Homo sapiens, UniProt P07477+P07478+P35030); assay: Induction of trypsin (unknown origin)-mediated proteolysis of compound incubated for 4 hrs by LC-HRMS spectroscopy; format: protein assay; details: trypsin (enzyme incubation), read-out: Activity

| SMILES | Kd (Complement C5 [1]) | Activity (Complement C5 [2]) | Activity (Complement C5 [3]) | Activity (HEK293) | Kd [4] | Activity (HeLa) | Kd [5] | Activity (Erythrocyte) | Time (Complement C5 [6]) | Kd [7] | Kd [8] | Kd (Complement C5 [9]) | Activity (Complement C5 [10]) | metabolised at 4 h (trypsin) |
| --- | --- | --- | --- | --- | --- | --- | --- | --- | --- | --- | --- | --- | --- | --- |
| CC[C@H](C)[C@H](NC(=O)[C@H](CO)NC(=O)[C@H](CCC(=O)O)NC(=O)[C@H](CCCNC(=N)N)NC(=O)[C@@H]1CCCN1C(=O)[C@H](Cc1ccccc1)NC(=O)[C@H](CC(=O)O)NC(=O)[C@H](CCCNC(=N)N)NC(=O)[C@H](CCCCN)NC(=O)[C@H](Cc1c[nH]c2ccccc12)NC(=O)[C@H](CCSC)NC(=O)[C@H](CCC(=O)O)NC(=O)[C@H](CC(=O)O)NC(=O)[C@H](CC(C)C)NC(=O)CNC(=O)[C@@H]1CCCN1C(=O)[C@H](Cc1ccc(O)cc1)NC(=O)[C@H](CCC(N)=O)NC(=O)[C@H](CC(=O)O)NC(=O)[C@H](CCCNC(=N)N)NC(=O)[C@@H](NC(=O)[C@H](Cc1cnc[nH]1)NC(=O)[C@H](CCC(=O)O)NC(=O)[C@H](CC(N)=O)NC(=O)[C@H](CC(C)C)NC(C)=O)C(C)C)C(=O)N[C@@H](CCCNC(=N)N)C(=O)N[C@H](C(=O)N[C@@H](Cc1cnc[nH]1)C(=O)N[C@H](C(=O)N[C@@H](C)C(N)=O)[C@@H](C)O)[C@@H](C)O | 820 nM | Active | Active | Non-Toxic | 105 nM | Non-Toxic | 203 nM | Non-Toxic | 1.99 nanoseconds | 299 nM | 126 nM | 940 nM | Active | – |
| CC[C@H](C)[C@H](NC(=O)[C@H](CO)NC(=O)[C@@H](CCC(=O)O)NC(=O)[C@H](CCCNC(=N)N)NC(=O)[C@@H]1CCCN1C(=O)[C@@H](Cc1ccccc1)NC(=O)[C@H](CC(=O)O)NC(=O)[C@@H](CCCNC(=N)N)NC(=O)[C@H](CCCCN)NC(=O)[C@H](Cc1c[nH]c2ccccc12)NC(=O)[C@H](CCSC)NC(=O)[C@@H](CCC(=O)O)NC(=O)[C@H](CC(=O)O)NC(=O)[C@H](CC(C)C)NC(=O)CNC(=O)[C@H]1CCCN1C(=O)[C@H](Cc1ccc(O)cc1)NC(=O)[C@H](CCC(N)=O)NC(=O)[C@@H](CC(=O)O)NC(=O)[C@H](CCCNC(=N)N)NC(=O)[C@@H](NC(=O)[C@H](Cc1cnc[nH]1)NC(=O)[C@@H](CCC(=O)O)NC(=O)[C@H](CC(N)=O)NC(=O)[C@H](CC(C)C)NC(C)=O)C(C)C)C(=O)N[C@@H](CCCNC(=N)N)C(=O)N[C@H](C(=O)N[C@@H](Cc1cnc[nH]1)C(=O)N[C@H](C(=O)N[C@@H](C)C(N)=O)[C@@H](C)O)[C@@H](C)O | 880 nM | Active | Active | Non-Toxic | 105 nM | Non-Toxic | 203 nM | Non-Toxic | – | 299 nM | 126 nM | 700 nM | Active | 0% |
